Assays:
[1] = Metal chelating activity assessed as iron chelation by CAS assay
RAW264.7 [2] = assay: Antiinflammatory activity in LPS-induced mouse RAW264.7 cells assessed as reduction in COX-2 level at 100 uM pretreated for 1 hr followed by LPS stimulation and measured after 48 hrs by ELISA relative to control; type: functional; design: scale not given: the % may be the effect or the level left; conditions: time 49 hrs
Acetylcholinesterase [3] = target: T1, Acetylcholinesterase (Homo sapiens, UniProt P22303); assay: Inhibition of Acetylcholinesterase (unknown origin) using acetylthiocholine iodide as substrate incubated for 20 mins by Ellaman's method
T1 sequence (P22303 whole entry): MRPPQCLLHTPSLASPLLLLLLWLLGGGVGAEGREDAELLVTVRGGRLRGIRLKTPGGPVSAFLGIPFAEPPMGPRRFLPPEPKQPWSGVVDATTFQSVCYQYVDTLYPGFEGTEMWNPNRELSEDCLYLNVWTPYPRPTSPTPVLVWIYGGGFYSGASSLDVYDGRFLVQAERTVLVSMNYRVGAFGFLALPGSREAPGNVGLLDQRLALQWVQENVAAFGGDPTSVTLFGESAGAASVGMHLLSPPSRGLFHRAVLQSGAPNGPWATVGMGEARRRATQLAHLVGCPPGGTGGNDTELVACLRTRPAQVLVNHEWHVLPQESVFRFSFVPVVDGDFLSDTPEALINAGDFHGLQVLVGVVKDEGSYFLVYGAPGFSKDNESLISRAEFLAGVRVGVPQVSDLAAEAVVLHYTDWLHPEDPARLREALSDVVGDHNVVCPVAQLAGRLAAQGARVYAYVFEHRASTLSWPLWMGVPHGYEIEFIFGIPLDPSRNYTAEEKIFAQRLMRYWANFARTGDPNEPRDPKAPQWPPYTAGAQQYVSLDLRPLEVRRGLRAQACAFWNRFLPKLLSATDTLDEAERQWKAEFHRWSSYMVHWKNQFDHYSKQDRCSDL

RAW264.7 [4] = assay: Anti-inflammatory activity against mouse RAW264.7 cells assessed as inhibition of LPS-induced NO production at 100 ng/ml pretreated with compound for 2 hrs followed by LPS stimulation and measured after 24 hrs by Griess reagent based analysis; type: functional; design: scale not given: the % may be the effect or the level left; conditions: time 26 hrs
RAW264.7 [5] = assay: Antiinflammatory activity against LPS-induced mouse RAW264.7 cells assessed as reduction in IL-6 mRNA expression at 10 uM by RT-PCR analysis; type: functional; design: scale not given: the % may be the effect or the level left
[6] = target: Cyclin-dependent kinase 5/CDK5 activator 1 (Homo sapiens, UniProt Q00535); assay: Inhibition of N-terminal full length human recombinant CDK5/p25 expressed in baculovirus-infected Sf21 cells incubated for 60 mins in presence of ATP by kinase-glo luminescent assay
Chain of Cyclin-dependent kinase 5/CDK5 activator 1 (Q00535 whole entry, the tested form may be a part, canonical isoform): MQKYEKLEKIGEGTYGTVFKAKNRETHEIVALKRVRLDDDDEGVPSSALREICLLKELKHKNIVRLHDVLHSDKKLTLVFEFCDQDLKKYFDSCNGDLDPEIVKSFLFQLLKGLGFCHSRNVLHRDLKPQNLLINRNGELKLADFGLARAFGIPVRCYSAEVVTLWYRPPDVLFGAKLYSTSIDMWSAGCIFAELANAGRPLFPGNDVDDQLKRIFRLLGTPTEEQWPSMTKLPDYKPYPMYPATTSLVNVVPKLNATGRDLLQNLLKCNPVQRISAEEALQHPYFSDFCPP
Chain of Cyclin-dependent kinase 5/CDK5 activator 1 (Q15078 whole entry, further chain, the tested form may be a part, canonical isoform): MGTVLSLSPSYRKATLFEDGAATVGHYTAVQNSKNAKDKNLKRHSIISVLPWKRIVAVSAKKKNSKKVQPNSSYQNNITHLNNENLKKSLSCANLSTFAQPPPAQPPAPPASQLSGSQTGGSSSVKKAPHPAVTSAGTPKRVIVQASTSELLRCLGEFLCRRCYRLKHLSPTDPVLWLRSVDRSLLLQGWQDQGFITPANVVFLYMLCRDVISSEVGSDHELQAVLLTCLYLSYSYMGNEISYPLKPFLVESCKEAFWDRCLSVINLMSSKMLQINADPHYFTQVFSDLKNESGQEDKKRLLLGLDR

[7] = target: Casein kinase I isoform delta (Homo sapiens, UniProt P48730); assay: Inhibition of N-terminal GST-tagged human recombinant CK1delta (1 to 294 residues) expressed in Escherichia coli incubated for 60 mins in presence of ATP by Kinase-glo luminescent assay
Chain of Casein kinase I isoform delta (P48730 whole entry, the tested form may be a part, canonical isoform): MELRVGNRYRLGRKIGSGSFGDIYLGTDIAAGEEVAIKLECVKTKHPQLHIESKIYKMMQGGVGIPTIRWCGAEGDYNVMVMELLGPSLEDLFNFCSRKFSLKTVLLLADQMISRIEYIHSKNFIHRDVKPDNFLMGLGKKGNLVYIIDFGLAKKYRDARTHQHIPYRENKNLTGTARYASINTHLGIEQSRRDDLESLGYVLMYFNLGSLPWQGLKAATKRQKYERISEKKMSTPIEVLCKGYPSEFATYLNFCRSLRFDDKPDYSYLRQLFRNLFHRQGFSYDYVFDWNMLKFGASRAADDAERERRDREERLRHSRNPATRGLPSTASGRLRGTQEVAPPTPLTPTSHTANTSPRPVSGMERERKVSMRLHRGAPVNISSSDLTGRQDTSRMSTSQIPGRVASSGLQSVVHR

[8] = target: Glycogen synthase kinase-3 beta (Homo sapiens, UniProt P49841); assay: Inhibition of N-terminal His6-tagged human recombinant GSK3beta expressed in baculovirus-infected Sf21 cells incubated for 60 mins in presence of ATP by ADP-glo analysis
Chain of Glycogen synthase kinase-3 beta (P49841 whole entry): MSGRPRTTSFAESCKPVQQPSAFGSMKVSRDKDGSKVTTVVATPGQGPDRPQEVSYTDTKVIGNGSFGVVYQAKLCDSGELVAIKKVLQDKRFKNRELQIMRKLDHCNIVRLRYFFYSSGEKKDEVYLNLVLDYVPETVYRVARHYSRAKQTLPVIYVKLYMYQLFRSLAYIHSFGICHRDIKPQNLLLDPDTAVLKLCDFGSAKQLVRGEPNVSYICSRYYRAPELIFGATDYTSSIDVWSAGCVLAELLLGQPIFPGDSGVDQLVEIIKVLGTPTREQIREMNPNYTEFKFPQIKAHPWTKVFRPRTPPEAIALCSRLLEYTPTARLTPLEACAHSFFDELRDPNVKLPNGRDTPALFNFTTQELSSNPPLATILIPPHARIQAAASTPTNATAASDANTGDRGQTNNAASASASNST

[9] = Immunosuppressive activity in Kunming mouse splenocyte assessed as reduction in ConA-stimulated T-lymphocytes proliferation at 20 uM incubated for 72 hrs by CCK-8 assay relative to control; type: functional, T-cell; design: scale not given: the % may be the effect or the level left
RAW264.7 [10] = assay: Anti-inflammatory activity against mouse RAW264.7 cells assessed as inhibition of LPS-induced NO production at 10 uM preincubated with compound for 2 hrs followed by LPS stimulation and measured after 24 hrs by Griess reagent based analysis; type: functional, cell-based
Acetylcholinesterase [11] = target: T1, Acetylcholinesterase; assay: Inhibition of human AchE using acetylthiocholine iodide as substrate incubated for 20 mins by Ellman's assay; conditions: read-out: EC50 (the source's name)
MCF7 = assay: Cytotoxicity against human MCF7 cells assessed as reduction in cell viability measured after 24 hrs by MTT assay; type: functional, cell-based; conditions: MCF7, 24 h
Acetylcholinesterase [12] = target: T1, Acetylcholinesterase; assay: Inhibition of AChE (unknown origin) by Ellman's method
Helicoverpa armigera = assay: Antifeedant activity against Helicoverpa armigera at 100 uM relative to control; type: functional
Cholinesterase = Cholinesterase (Homo sapiens, UniProt P06276); assay: Inhibition of butyrylcholinesterase (unknown origin)
Chain of Cholinesterase (P06276 whole entry): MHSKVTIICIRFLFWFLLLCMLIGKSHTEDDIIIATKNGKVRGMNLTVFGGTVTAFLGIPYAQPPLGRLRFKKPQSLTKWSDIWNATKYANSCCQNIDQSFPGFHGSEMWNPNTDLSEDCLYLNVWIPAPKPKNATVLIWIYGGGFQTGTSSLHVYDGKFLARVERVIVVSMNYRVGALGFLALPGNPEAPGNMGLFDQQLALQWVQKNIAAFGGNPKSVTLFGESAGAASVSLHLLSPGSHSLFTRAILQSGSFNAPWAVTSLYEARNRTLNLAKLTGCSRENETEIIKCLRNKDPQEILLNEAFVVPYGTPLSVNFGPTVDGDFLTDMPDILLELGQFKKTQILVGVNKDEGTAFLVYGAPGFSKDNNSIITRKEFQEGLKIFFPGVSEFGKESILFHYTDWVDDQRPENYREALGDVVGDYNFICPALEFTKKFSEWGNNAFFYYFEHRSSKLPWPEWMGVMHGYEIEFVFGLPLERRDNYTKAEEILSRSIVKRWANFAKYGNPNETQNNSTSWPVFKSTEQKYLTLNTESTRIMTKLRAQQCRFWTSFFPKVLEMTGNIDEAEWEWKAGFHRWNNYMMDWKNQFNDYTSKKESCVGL

[13] = Antioxidant activity assessed as DPPH radical scavenging activity; type: functional
[14] = target: Beta-1 adrenergic receptor (Homo sapiens) (UniProt P08588); assay: Agonist activity at ARbeta1 (unknown origin) expressed in CHO-K1 cells co-expressing G alpha 15 assessed as inhibition of isoproterenol induced calcium response upto 100 uM incubated for 10 mins by calcium mobilization assay relative to control; type: functional, cell-based; design: Activity: scale not given: the % may be the effect or the level left
Chain of Beta-1 adrenergic receptor (Homo sapiens) (P08588 whole entry, looked up): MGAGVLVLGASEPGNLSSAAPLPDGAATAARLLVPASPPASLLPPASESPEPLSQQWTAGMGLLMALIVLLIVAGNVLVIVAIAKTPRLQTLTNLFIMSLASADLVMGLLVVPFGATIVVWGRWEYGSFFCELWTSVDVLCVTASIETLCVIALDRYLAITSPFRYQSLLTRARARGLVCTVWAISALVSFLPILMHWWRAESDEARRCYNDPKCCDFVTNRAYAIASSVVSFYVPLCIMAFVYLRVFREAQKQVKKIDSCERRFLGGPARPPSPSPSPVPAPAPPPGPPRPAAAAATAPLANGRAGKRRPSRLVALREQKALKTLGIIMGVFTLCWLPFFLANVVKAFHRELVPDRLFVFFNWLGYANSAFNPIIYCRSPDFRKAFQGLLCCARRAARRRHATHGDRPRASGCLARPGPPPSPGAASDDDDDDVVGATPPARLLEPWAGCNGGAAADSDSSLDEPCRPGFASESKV

[15] = Antioxidant activity assessed as DPPH radical scavenging activity incubated for 20 mins by spectrophotometric method; type: functional
HeLa = assay: Cytotoxicity against human HeLa cells assessed as reduction in cell viability measured after 24 hrs by MTT assay; type: functional, cell-based
[16] = target: Alpha-2B adrenergic receptor (Homo sapiens, UniProt P18089); assay: Binding affinity to alpha2B receptor (unknown origin) assessed as inhibition constant
Chain of Alpha-2B adrenergic receptor (P18089 whole entry): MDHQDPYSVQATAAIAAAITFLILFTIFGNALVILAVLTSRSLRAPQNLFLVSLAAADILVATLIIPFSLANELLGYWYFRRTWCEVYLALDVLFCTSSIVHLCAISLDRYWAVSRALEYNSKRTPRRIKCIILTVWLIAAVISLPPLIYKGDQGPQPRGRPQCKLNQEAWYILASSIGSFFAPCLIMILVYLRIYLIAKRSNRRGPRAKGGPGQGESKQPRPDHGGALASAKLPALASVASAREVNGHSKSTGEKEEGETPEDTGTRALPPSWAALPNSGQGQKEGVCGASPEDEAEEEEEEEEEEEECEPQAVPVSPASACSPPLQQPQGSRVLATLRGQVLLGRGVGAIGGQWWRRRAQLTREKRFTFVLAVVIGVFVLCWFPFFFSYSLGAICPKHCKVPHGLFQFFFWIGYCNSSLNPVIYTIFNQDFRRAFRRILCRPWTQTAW

For NC[C@H](CCCCNC(=O)c1cccc(O)c1O)N1C(=O)c2c(ccc(O)c2O)[C@@H](c2ccccc2)[C@]1(O)C(=O)O, the EC50 [1] was 28 µM.
Work on CS(=O)(=O)Nc1ccc([N+](=O)[O-])cc1OC1CCCCC1 [NS-398] yielded an Activity (RAW264.7 [2]) of 97.1%.
With N[C@@H](CO)C(=O)O [SERINE] the IC50 (Acetylcholinesterase [3]) was 38.3 µM.
Molecule COc1cc(/C=C/C(=O)N2c3cc(O[C@@H]4O[C@H](CO[C@@H]5O[C@H](CO)[C@@H](O)[C@H](O)[C@H]5OC(=O)/C=C/c5cc(OC)c(O)c(OC)c5)[C@@H](O)[C@H](O)[C@H]4O)c(O)cc3C[C@H]2C(=O)O)ccc1O has an Activity (RAW264.7 [4]) of 38.9% and an Activity (RAW264.7 [5]) of 82.4%.
Molecule NC[C@H](CCCCNC(=O)c1cccc(O)c1O)NC(=O)c1cccc(O)c1O has an EC50 [1] of 4.6 µM.
For COc1cc2c(cc1O)CCn1c-2c(-c2ccc(O)c(O)c2)c2c3cc(O)c(OC)cc3oc(=O)c21, the IC50 [6] was 1.1 µM, the IC50 [7] was > 10 µM and the IC50 [8] was 3 µM.
Molecule CC(=O)NCCc1cc(O)c(O)cc1[C@H](NC(C)=O)C(=O)c1ccc(O)c(O)c1 has an Activity [9] of 5%.
Molecule C[C@@H]1C[C@H]2[C@@H]3CCC4=CC(=O)C=C[C@]4(C)[C@@]3(F)[C@@H](O)C[C@]2(C)[C@@]1(O)C(=O)CO [DEXAMETHASONE] has an IC50 (RAW264.7 [10]) of 2 µM.
For O=Cc1ccc2n1CCc1cc(O)c(O)cc1C2, the IC50 (Acetylcholinesterase [3]) was 58.4 µM.
In the case of O=C(/C=C/c1ccc(O)cc1)n1ccc2cc(O)c(O[C@@H]3O[C@H](CO)[C@@H](O)[C@H](O)[C@H]3O)cc21, the IC50 (Acetylcholinesterase [11]) is reported as 58.8 µM.
With COCc1ccc(C=O)n1CCc1ccc(O)c(O)c1 the IC50 (MCF7) was 11.6 µM.
CO[C@H](CNC(=O)/C=C/c1ccc(O)cc1)c1ccc(O)c(O)c1 gave an EC50 (Acetylcholinesterase [12]) of 23.1 µM, an Activity (Helicoverpa armigera) of 61.6% and an EC50 (Cholinesterase) of 46.9 µM.
Work on O=C(/C=C/c1ccc(O)cc1)n1ccc2cc(O)c(O)cc21 yielded an EC50 [13] of 16.2 µM and an IC50 (Acetylcholinesterase [11]) of 55.1 µM.
Molecule OCc1ccc(C2=NCCc3cc(O)c(O)cc32)o1 has an Activity [14] of 13.7%.
COc1cc(O)c2c(c1)C(=O)c1cc(O)c(O)cc1CCN2 gave an IC50 (Acetylcholinesterase [3]) of 46 µM.
For COc1cc(/C=C/C(=O)OC[C@H]2O[C@@H](O[C@H]3[C@H](O)[C@@H](OC(=O)/C=C/c4ccc(O)c(O)c4)[C@H](OC[C@H]4O[C@@H](Oc5cc6c(cc5O)C[C@@H](C(=O)O)N6C(=O)/C=C/c5ccc(O)cc5)[C@H](O)[C@@H](O)[C@@H]4O)O[C@@H]3CO)[C@H](O)[C@@H](O)[C@@H]2O)ccc1O, the Activity (RAW264.7 [4]) was 34.7% and the Activity (RAW264.7 [5]) was 81%.
Work on NC[C@H](CCCCNC(=O)c1cccc(O)c1O)N1C(=O)c2c(ccc(O)c2O)[C@@H](c2c[nH]c3ccccc23)[C@]1(O)C(=O)O yielded an EC50 [1] of 30.1 µM.
Work on COC(=O)[C@@H]1Cc2cc(O)c(O[C@@H]3O[C@H](CO)[C@@H](O)[C@H](O)[C@H]3O)cc2N1C(=O)/C=C/c1ccc(O)cc1 yielded an EC50 [15] of 37.7 µM.
With O=C(/C=C/c1ccc(O)c(O)c1)OC[C@H]1O[C@@H](O[C@H]2[C@H](O)[C@@H](OC(=O)/C=C/c3ccc(O)c(O)c3)[C@H](OC[C@H]3O[C@@H](Oc4cc5c(cc4O)C[C@@H](C(=O)O)N5C(=O)/C=C/c4ccc(O)cc4)[C@H](O)[C@@H](O)[C@@H]3O)O[C@@H]2CO)[C@H](O)[C@@H](O)[C@@H]1O the Activity (RAW264.7 [4]) was 38.8% and the Activity (RAW264.7 [5]) was 74.2%.
Oc1cc2c(cc1O)[C@H](C1=C[C@@]3(O)CC/C=C\CCCCN4CC[C@@H]1[C@]1(C[C@@H]5/C=C\CCCCN5[C@H]13)C4)NCC2 gave an IC50 (HeLa) of 5.7 µM.
COc1cc(CCN(C)C)c2c(c1O)SC(CCNC(=N)N)(C1=NCCc3cc(O)c(O)cc31)S2 (stereo not given) showed a Ki [16] of 5.9 µM.
In the case of CC1=NCCc2cc(O)c(O)cc21, the Activity [14] is reported as 15.9%.
